Assay results from patent publication US20170319669A1, “METHOD OF ENHANCING VIRAL-MEDIATED GENE DELIVERY” (Wayne State University, priority 2016, published 2017).
Peptide text beside a SMILES is read from it. * marks the point of attachment. Cbz = O=C(OCc1ccccc1)*

What was measured:
retinal bipolar cells = assay: AAV-mediated transduction efficiency (mCherry expression) in retinal bipolar cells after intravitreal co-injection of rAAV2 vector with proteasome inhibitor; format: in vivo, C57BL/6J mice; details: for transduction efficiency in retinal bipolar cells: about one month after virus injection; for expression (fluorescence intensity) of mCherry in bipolar cells: intravitreal
Text: FIG. 1A-B is a series of photographs and a graph depicting the effects of proteasomes on the AAV-mediated expression of transgene (mCherry) in retinal bipolar cells one month after virus injection. FIG. 1A: Representative images of virus transduced retinal bipolar cells. […] DOX: doxorubicin; Acla: Aclarubicin; MG: MG132. FIG. 1B. Statistical data for evaluating the fluorescence intensity of mCherry in bipolar cells one month after virus injection.
FIG. 2A-B is a series of photographs and a graph depicting the effects of DOX on the AAV-mediated expression of transgene (mCherry) in retinal bipolar cells three months after virus injection. FIG. 2A. Representative images of virus transduced retinal bipolar cells three months after virus injection. Virus vectors were co-injected with DOX at different concentrations. FIG. 2B. Statistical data for evaluating the fluorescence intensity of mCherry in bipolar cells three months after virus injection.

retinal ganglion cells = assay: Density of retinal ganglion cells (DAPI staining) after virus injection with and without DOX; format: in vivo, C57BL/6J mice; details: three months after virus injection; 300 μM and 500 μM DOX
Text: FIG. 4A-B is a series of photographs and a graph, depicting the effects of DOX on retinal ganglion cells. FIG. 4A. Representative images for evaluating the density of retinal ganglion cells with DAPI staining after virus transduction in bipolar cells with and without DOX at different concentrations. Animals were euthanized one and three months after virus injection. FIG. 4B. Statistical data for evaluating the density of retinal ganglion cells one and three months after virus injection with and without doxorubicin (DOX).

## CC(C)C[C@@H](C=O)NC(=O)[C@H](CC(C)C)NC(=O)[C@H](CC(C)C)NC(=O)OCc1ccccc1 [MG132] (Cbz-Leu-Leu-Leu-aldehyde)
Retinal bipolar cells; MG132 100 μM, 200 μM, 500 μM
  transduction efficiency in retinal bipolar cells: not found to enhance the transduction efficiency

## CC[C@@]1(O)C[C@H](O[C@H]2C[C@H](N(C)C)[C@H](O[C@H]3C[C@H](O)[C@H](O[C@H]4CCC(=O)[C@H](C)O4)[C@H](C)O3)[C@H](C)O2)c2c(cc3c(c2O)C(=O)c2c(O)cccc2C3=O)[C@H]1C(=O)OC [aclarubicin]
Retinal bipolar cells; aclarubicin 50 μM, 100 μM
  transduction efficiency in retinal bipolar cells: not found to enhance the transduction efficiency

## COc1cccc2c1C(=O)c1c(O)c3c(c(O)c1C2=O)C[C@@](O)(C(=O)CO)C[C@@H]3O[C@H]1C[C@H](N)[C@H](O)[C@H](C)O1 [doxorubicin]
Retinal bipolar cells; doxorubicin from 200 μM to 800 μM
  transduction efficiency in retinal bipolar cells: concentration-dependent increase
Retinal bipolar cells; intravitreal co-injection with rAAV2 vector, mice
  optimal concentration to enhance the AAV transduction efficiency: 500 µM
Retinal bipolar cells; one month after virus injection, co-injection of DOX at concentrations ≧300 μM, mice
  expression (fluorescence intensity) of mCherry in bipolar cells: significantly increased
Retinal bipolar cells; three months after virus injection, co-injection of DOX at concentrations ≧200 μM, mice
  expression (fluorescence intensity) of mCherry in bipolar cells: significantly increased
Retinal ganglion cells
  retinal ganglion cell density vs control: statistically lower than that of control
